Patent US8598365B2, “Herbicides” (Syngenta Limited, priority 2007, dated 2013)

Key:
Format in all cases: in vivo
[1] = tested on: Alopecurus myosuroides (ALOMY); assay: Example B pre-emergence herbicidal activity; conditions: 312 h, rate 250 g/ha, evaluated after 13 days, read-out: Pre-Emergence Activity ALOMY (100=total damage to plant; 0=no damage to plant)
Outline: (§1)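 Pre-emergence spraying at one day, post-emergence at eight days after sowing. Spray solution in acetone/water (50:50) plus 0.5% Tween 20; plants held at 24/16 °C day/night, 14 h light, 65% humidity. Evaluation at 13 days on a 0–100 damage scale.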

[2] = tested on: Amaranthus retoflexus (AMARE); assay: Example B pre-emergence herbicidal activity; conditions: Amaranthus retroflexus, 312 h, rate 250 g/ha, evaluated after 13 days, read-out: Pre-Emergence Activity AMARE (100=total damage to plant; 0=no damage to plant)
Outline: as §1

[3] = tested on: Avena fatua (AVEFA); assay: Example B pre-emergence herbicidal activity; conditions: 312 h, rate 250 g/ha, evaluated after 13 days, read-out: Pre-Emergence Activity AVEFA (100=total damage to plant; 0=no damage to plant)
Outline: as §1

[4] = tested on: Echinochloa crus-galli (ECHCG); assay: Example B pre-emergence herbicidal activity; conditions: 312 h, rate 250 g/ha, evaluated after 13 days, read-out: Pre-Emergence Activity ECHCG (100=total damage to plant; 0=no damage to plant)
Outline: as §1

[5] = tested on: Setaria faberi (SETFA); assay: Example B pre-emergence herbicidal activity; conditions: 312 h, rate 250 g/ha, evaluated after 13 days, read-out: Pre-Emergence Activity SETFA (100=total damage to plant; 0=no damage to plant)
Outline: as §1

[6] = tested on: Alopecurus myosuroides (ALOMY); assay: Example B post-emergence herbicidal activity; conditions: 312 h, rate 250 g/ha, evaluated after 13 days, read-out: Post-emergence activity ALOMY (100=total damage to plant; 0=no damage to plant)
Outline: as §1

[7] = tested on: Amaranthus retoflexus (AMARE); assay: Example B post-emergence herbicidal activity; conditions: Amaranthus retroflexus, 312 h, rate 250 g/ha, evaluated after 13 days, read-out: Post-emergence activity AMARE (100=total damage to plant; 0=no damage to plant)
Outline: as §1

[8] = tested on: Avena fatua (AVEFA); assay: Example B post-emergence herbicidal activity; conditions: 312 h, rate 250 g/ha, evaluated after 13 days, read-out: Post-emergence activity AVEFA (100=total damage to plant; 0=no damage to plant)
Outline: as §1

[9] = tested on: Echinochloa crus-galli (ECHCG); assay: Example B post-emergence herbicidal activity; conditions: 312 h, rate 250 g/ha, evaluated after 13 days, read-out: Post-emergence activity ECHCG (100=total damage to plant; 0=no damage to plant)
Outline: as §1

[10] = tested on: Setaria faberi (SETFA); assay: Example B post-emergence herbicidal activity; conditions: 312 h, rate 250 g/ha, evaluated after 13 days, read-out: Post-emergence activity SETFA (100=total damage to plant; 0=no damage to plant)
Outline: as §1

| Compound | pest or weed control at 250 g/ha [1] [%] | pest or weed control at 250 g/ha [2] [%] | pest or weed control at 250 g/ha [3] [%] | pest or weed control at 250 g/ha [4] [%] | pest or weed control at 250 g/ha [5] [%] | pest or weed control at 250 g/ha [6] [%] | pest or weed control at 250 g/ha [7] [%] | pest or weed control at 250 g/ha [8] [%] | pest or weed control at 250 g/ha [9] [%] | pest or weed control at 250 g/ha [10] [%] |
| --- | --- | --- | --- | --- | --- | --- | --- | --- | --- | --- |
| Cc1sc(-c2ccc(Br)cn2)nc1C1C(=O)[C@@H]2CC[C@@H](C2)C1=O (some centres unmarked) [Compound T35] | 30 | 0 | 0 | 90 | 100 | 100 | 0 | 80 | 100 | 100 |
| CCc1sc(-c2ccc(Cl)s2)nc1C1C(=O)[C@@H]2CC[C@@H](C2)C1=O (some centres unmarked) [Compound T36] | 60 | 0 | 20 | 60 | 70 | 90 | 0 | 20 | 100 | 100 |
| Cc1cc(Br)ccc1-c1nc(C2C(=O)[C@@H]3CC[C@@H](C3)C2=O)c(C)s1 (some centres unmarked) [Compound T37] | 30 | 0 | 30 | 60 | 90 | 100 | 0 | 90 | 100 | 100 |
| CCc1sc(-c2ccc(Br)cc2C)nc1C1C(=O)[C@@H]2CC[C@@H](C2)C1=O (some centres unmarked) [Compound T38] | 60 | 0 | 50 | 70 | 100 | 100 | 0 | 100 | 100 | 100 |
| CCc1sc(-c2ccc(Br)cn2)nc1C1C(=O)[C@@H]2CC[C@@H](C2)C1=O (some centres unmarked) [Compound T39] | 90 | 0 | 0 | 100 | 90 | 100 | 0 | 100 | 100 | 100 |
| O=C1C(c2nc(-c3ccc(Br)cc3)sc2CC(F)(F)F)C(=O)[C@H]2CC[C@@H]1C2 (some centres unmarked) [Compound T40] | 100 | 0 | 100 | 100 | 100 | 100 | 0 | 100 | 100 | 100 |
| CCc1sc(COc2ccc(Cl)cc2)nc1C1C(=O)[C@@H]2CC[C@@H](C2)C1=O (some centres unmarked) [Compound T41] | 80 | 0 | 0 | 100 | 40 | 100 | 0 | 70 | 100 | 100 |
| Cc1sc(-c2ccc(OC(F)F)cc2)nc1C1C(=O)[C@@H]2CC[C@@H](C2)C1=O (some centres unmarked) [Compound T42] | 100 | 0 | 0 | 100 | 100 | 100 | 0 | 70 | 100 | 100 |
| CCc1sc(-c2ccc(OC(F)F)cc2)nc1C1C(=O)[C@@H]2CC[C@@H](C2)C1=O (some centres unmarked) [Compound T44] | 90 | 0 | 60 | 100 | 100 | 100 | 0 | 100 | 100 | 100 |
| CCc1sc(-c2c(C)cc(Cl)cc2F)nc1C1C(=O)[C@@H]2CC[C@@H](C2)C1=O (some centres unmarked) [Compound T45] | 90 | 0 | 30 | 100 | 100 | 100 | 0 | 100 | 100 | 100 |
| CCc1sc(-c2ccc(Cl)cc2Cl)nc1C1C(=O)[C@@H]2CC[C@@H](C2)C1=O (some centres unmarked) [Compound T46] | 60 | 0 | 30 | 100 | 90 | 100 | 0 | 90 | 100 | 100 |
| O=C1C(c2nc(-c3ccc(Cl)cc3)sc2Br)C(=O)[C@H]2CC[C@@H]1C2 (some centres unmarked) [Compound T49] | 100 | 0 | 100 | 100 | 100 | 90 | 0 | 90 | 100 | 100 |
| CCc1sc(-c2ccc(Cl)cc2Br)nc1C1C(=O)[C@@H]2CC[C@@H](C2)C1=O (some centres unmarked) [Compound T51] | 80 | 0 | 20 | 100 | 100 | 100 | 0 | 100 | 100 | 100 |
| CCc1sc(-c2cc(F)c(Cl)cc2Cl)nc1C1C(=O)[C@@H]2CC[C@@H](C2)C1=O (some centres unmarked) [Compound T53] | 90 | 0 | 80 | 100 | 100 | 100 | 0 | 100 | 100 | 100 |
| CCc1sc(-c2ccc(C)cc2)nc1C1C(=O)[C@@H]2CC[C@@H](C2)C1=O (some centres unmarked) [Compound T54] | 90 | 0 | 70 | 100 | 60 | 100 | 30 | 90 | 100 | 100 |
| O=C1C(c2nc(-c3ccc(Cl)cc3)sc2Cl)C(=O)[C@H]2CC[C@@H]1C2 (some centres unmarked) [Compound T55] | 100 | 0 | 100 | 100 | 100 | 100 | 0 | 100 | 100 | 100 |
| Cc1sc(-c2ccccc2)nc1C1C(=O)[C@@H]2CC[C@@H](C2)C1=O (some centres unmarked) [Compound T56] | 0 | 0 | 0 | 40 | 0 | 0 | 0 | 0 | 60 | 70 |
